Source: patent US6015814A, “Quinazoline derivative” (Zeneca Limited, priority 1995, dated 2000)

Key:
[1] = system: another carcinoma which does not express EGF receptor tyrosine kinase; conditions: cited from earlier work
[2] = system: human mammary carcinoma which expresses EGF receptor tyrosine kinase; conditions: athymic nude mice; cited from earlier work
[3] = target: T1, EGF receptor tyrosine kinase (Homo sapiens, UniProt P00533); assay: in vitro assay, inhibition of EGF receptor tyrosine kinase (test (a)); type: biochemical, human (A-431 cells, derived from human vulval carcinoma); conditions: approximately
T1 construct: Receptor tyrosine kinase was obtained in partially purified form from A-431 cells; endogenous in cells; host or cells: A-431 cells (human vulval carcinoma)
Method: (a) An in vitro assay which determines the ability of a test compound to inhibit the enzyme EGF receptor tyrosine kinase. Receptor tyrosine kinase was obtained in partially purified form from A-431 cells (derived from human vulval carcinoma) by the procedures described below which are related to those described by Carpenter et al., J. Biol. Chem., 1979. 254, 4884, Cohen et al., J. Biol. Chem., 1982, 257, 1523 and by Braun et al., J. Biol. Chem., 1984, 259, 2051.
A-431 cells were grown to confluence using Dulbecco's modified Eagle's medium (DMEM) containing 5% fetal calf serum (FCS). The obtained cells were homogenised in a hypotonic borate/EDTA buffer at pH 10.1. The homogenate was centrifuged at 400 g for 10 minutes at 0-4° C. The supernatant was centrifuged at 25,000 g for 30 minutes at 0-4° C. […]
The test compound/EGF mixture solution (5 μl) was added to the test enzyme solution (10 μl) and the mixture was incubated at 0-4° C. for 30 minutes. […] Radioactivity present in the filter paper was measured using a liquid scintillation counter (Sequence A). […]
Receptor tyrosine kinase inhibition was calculated as follows: [formula]
The extent of inhibition was then determined at a range of concentrations of test compound to give an IC50 value.

[4] = system: human vulval epidermoid carcinoma cell line A-431; assay: in vivo assay, inhibition of growth of A-431 xenografts in athymic nude mice (test (c)); set-up: species or system human xenografts in athymic nude mice (strain ONU:Alpk); conditions: daily dose of 50 mg/kg; usually oral; relative to untreated controls
Method: (c) An in-vivo assay in a group of athymic nude mice (strain ONU:Alpk) which determines the ability of a test compound (usually administered orally as a ball-milled suspension in 0.5% polysorbate) to inhibit the growth of xenografts of the human vulval epidermoid carcinoma cell line A-431. A-431 cells were maintained in culture in DMEM supplemented with 5% FCS and 2 mM glutamine. Freshly cultured cells were harvested by trypsinization and injected subcutaneously (10 million cells/0.1 ml/mouse) into both flanks of a number of donor nude mice. When sufficient tumour material was available (after approximately 9 to 14 days), fragments of tumour tissue were transplanted in the flanks of recipient nude mice (test day 0). Generally, on the seventh day after transplantation (test day 7) groups of 7 to 10 mice with similar-sized tumours were selected and dosing of the test compound was commenced. Once daily dosing of test compound was continued for a total of 13 days (test days 7 to 19 inclusive). In some studies the dosing of the test compound was continued beyond test day 19, for example to test day 26. In each case, on the following test day the animals were killed and the final tumour volume was calculated from measurements of the length and width of the tumours. Results were calculated as a percentage inhibition of tumour volume relative to untreated controls.

[5] = system: human naso-pharyngeal cancer cell line KB; assay: in vitro assay, inhibition of EGF-stimulated growth of the human naso-pharyngeal cancer cell line KB (test (b)); type: cell-based; conditions: 72 h, KB cells, 3 days, approximately
Method: (b) An in vitro assay which determines the ability of a test compound to inhibit the EGF-stimulated growth of the human naso-pharyngeal cancer cell line KB.
KB cells were seeded into wells at a density of 1×10^4 -1.5×10^4 cells per well and grown for 24 hours in DMEM supplemented with 5% FCS (charcoal-stripped). Cell growth was determined after incubation for 3 days by the extent of metabolism of MTT tetrazolium dye to furnish a bluish colour. Cell growth was then determined in the presence of EGF (10 ng/ml) or in the presence of EGF (10 ng/ml) and a test compound at a range of concentrations. An ICSO value could then be calculated.

T1 sequence (P00533 25-1210): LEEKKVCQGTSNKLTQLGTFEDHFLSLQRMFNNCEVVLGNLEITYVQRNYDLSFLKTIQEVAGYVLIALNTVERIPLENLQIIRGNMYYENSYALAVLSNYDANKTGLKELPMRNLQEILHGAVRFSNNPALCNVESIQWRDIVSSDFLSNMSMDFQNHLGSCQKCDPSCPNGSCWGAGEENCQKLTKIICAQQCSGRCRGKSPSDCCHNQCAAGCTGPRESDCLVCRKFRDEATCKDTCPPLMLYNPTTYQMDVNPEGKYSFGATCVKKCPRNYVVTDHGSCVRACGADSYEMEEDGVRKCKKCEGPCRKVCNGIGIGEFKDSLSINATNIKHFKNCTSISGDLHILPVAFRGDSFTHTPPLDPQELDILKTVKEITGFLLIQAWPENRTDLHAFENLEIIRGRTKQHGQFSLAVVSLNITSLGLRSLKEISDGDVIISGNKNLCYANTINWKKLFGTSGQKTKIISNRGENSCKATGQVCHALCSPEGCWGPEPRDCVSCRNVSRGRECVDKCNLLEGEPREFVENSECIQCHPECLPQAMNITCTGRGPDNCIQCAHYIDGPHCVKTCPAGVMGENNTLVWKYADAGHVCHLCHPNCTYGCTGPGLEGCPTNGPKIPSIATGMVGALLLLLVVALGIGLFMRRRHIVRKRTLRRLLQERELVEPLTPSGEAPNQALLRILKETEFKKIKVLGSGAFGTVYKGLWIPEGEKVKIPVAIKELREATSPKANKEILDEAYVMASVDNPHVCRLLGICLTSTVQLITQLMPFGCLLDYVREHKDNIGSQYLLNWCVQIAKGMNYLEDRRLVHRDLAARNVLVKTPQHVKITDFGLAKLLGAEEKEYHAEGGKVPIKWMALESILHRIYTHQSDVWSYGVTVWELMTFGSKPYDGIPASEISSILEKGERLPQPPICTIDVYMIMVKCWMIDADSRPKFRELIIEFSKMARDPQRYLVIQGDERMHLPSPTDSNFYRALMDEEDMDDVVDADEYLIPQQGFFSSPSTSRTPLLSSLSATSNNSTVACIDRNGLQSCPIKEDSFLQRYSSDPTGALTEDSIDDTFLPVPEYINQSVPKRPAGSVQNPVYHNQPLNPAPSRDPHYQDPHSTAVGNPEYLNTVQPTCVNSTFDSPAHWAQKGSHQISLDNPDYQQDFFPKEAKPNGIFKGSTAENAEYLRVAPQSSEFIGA

SMILES | growth of another carcinoma [1] | growth of transplanted human mammary carcinoma [2] | IC50 [3] [nM] | inhibition of tumour volume, test (c) [4] | IC50 [5] [nM]
O=CN/C=C/c1cc(O)ccc1O [erbstatin] | without effect on the growth | specifically attenuates the growth | – | – | –
Fc1ccc(Nc2ncnc3ccc(NCCCN4CCCC4)cc23)cc1Cl [Example 1, 4-(3'-chloro-4'-fluoroanilino)-6-[3-(pyrrolidin-1-yl)propylamino]quinazoline] | – | – | ~76 | greater than 50% | ~60
